# In PMC3923778 (PLoS Currents, 2014):
# Test system: R6/2 mice
# Experiment: Rear Climbing Test
# Assay type: in vivo, mouse
# Conditions: for Rear Climbing Test Rearing Frequency: p vs Vehicle-treated R6/2 mice / Rear Climbing Test Climbing Instances: p vs Vehicle-treated R6/2 mice / Rear Climbing Test Latency to Climb: p vs Vehicle-treated R6/2 mice / Rear Climbing Test Time Spent Climbing: p vs Vehicle-treated R6/2 mice: BID
# Method: Motor function testing including open field and rear climbing tests were commenced at 4 weeks of age and continued at weeks 6, 8 and 12, for grip strength test at age weeks 4 and 12 and for rotarod at age weeks 4, 6 and 8. Compound treatment was started at 4 weeks of age after the baseline behavioral tests.
# Rear climbing test was performed at age weeks 4, 6, 8 and 12. The mice were tested on Tuesdays. Each animal was placed into custom made pencil holder, and was scored for 5 minutes. During this period the following events were noted: 1) number of times the mouse rears without touching the mesh walls, 2) latency to climb (lifting 4 paws from the floor is labeled climbing), 3) climbing time, and 4) climbing instances.
# All values are presented as mean ± Standard Error of Mean (SEM), and differences are considered to be statistically significant at the p < 0.05 level. Statistical analysis was performed using StatsDirect statistical software. Differences between group means were analyzed by 1-way-ANOVA followed by Dunnett’s test (comparison to the control (=vehicle treated TG mice) group). The acquisition of the Cued two-choice swim test was analyzed using Fisher’s exact test.
# [1] = Age Week 4, 10 mg/kg p.o., ANOVA
# [2] = Age Week 4, 30 mg/kg p.o., ANOVA
# [3] = Age Week 6, 10 mg/kg p.o., ANOVA
# [4] = Age Week 6, 30 mg/kg p.o., ANOVA
# [5] = Age Week 8, 10 mg/kg p.o., ANOVA
# [6] = Age Week 8, 30 mg/kg p.o., ANOVA
# [7] = Age Week 12, 10 mg/kg p.o., ANOVA
# [8] = Age Week 12, 30 mg/kg p.o., ANOVA
structure (smiles),measurement,setting,value
"CN1C(=O)c2nc(Cc3ccc(C(F)(F)F)cc3)[nH]c2N2C1=N[C@H]1CCC[C@H]12 [SCH-51866, (+)-cis-5,6a,7,8,9,9a-hexahydro-2-[4-[trifluro-methyl]phenylmethyl]-5-methyl-cylopent[4,5]imidazo [2,1-b]purin-4(3H)one]",Rear Climbing Test Rearing Frequency: p vs Vehicle-treated R6/2 mice,"Age Week 4, 10 mg/kg p.o.",p=0.507
same,Rear Climbing Test Climbing Instances: p vs Vehicle-treated R6/2 mice,[1],ANOVA: p=0.484
same,Rear Climbing Test Latency to Climb: p vs Vehicle-treated R6/2 mice,[1],ANOVA: p=0.365
same,Rear Climbing Test Time Spent Climbing: p vs Vehicle-treated R6/2 mice,[1],ANOVA: p=0.853
same,Rear Climbing Test Rearing Frequency: p vs Vehicle-treated R6/2 mice,"Age Week 4, 30 mg/kg p.o.",p=0.186
same,Rear Climbing Test Climbing Instances: p vs Vehicle-treated R6/2 mice,[2],ANOVA: p=0.484
same,Rear Climbing Test Latency to Climb: p vs Vehicle-treated R6/2 mice,[2],ANOVA: p=0.365
same,Rear Climbing Test Time Spent Climbing: p vs Vehicle-treated R6/2 mice,[2],ANOVA: p=0.853
same,Rear Climbing Test Climbing Instances: p vs Vehicle-treated R6/2 mice,[3],ANOVA: p=0.120
same,Rear Climbing Test Latency to Climb: p vs Vehicle-treated R6/2 mice,[3],ANOVA: p=0.257
same,Rear Climbing Test Rearing Frequency: p vs Vehicle-treated R6/2 mice,[3],ANOVA: p=0.203
same,Rear Climbing Test Time Spent Climbing: p vs Vehicle-treated R6/2 mice,[3],ANOVA: p=0.291
same,Rear Climbing Test Climbing Instances: p vs Vehicle-treated R6/2 mice,[4],ANOVA: p=0.120
same,Rear Climbing Test Latency to Climb: p vs Vehicle-treated R6/2 mice,[4],ANOVA: p=0.257
same,Rear Climbing Test Rearing Frequency: p vs Vehicle-treated R6/2 mice,[4],ANOVA: p=0.203
same,Rear Climbing Test Time Spent Climbing: p vs Vehicle-treated R6/2 mice,[4],ANOVA: p=0.291
same,Rear Climbing Test Climbing Instances: p vs Vehicle-treated R6/2 mice,[5],ANOVA: p=0.166
same,Rear Climbing Test Latency to Climb: p vs Vehicle-treated R6/2 mice,[5],ANOVA: p=0.193
same,Rear Climbing Test Rearing Frequency: p vs Vehicle-treated R6/2 mice,[5],ANOVA: p=0.782
same,Rear Climbing Test Time Spent Climbing: p vs Vehicle-treated R6/2 mice,[5],ANOVA: p=0.750
same,Rear Climbing Test Climbing Instances: p vs Vehicle-treated R6/2 mice,[6],ANOVA: p=0.166
same,Rear Climbing Test Latency to Climb: p vs Vehicle-treated R6/2 mice,[6],ANOVA: p=0.193
same,Rear Climbing Test Rearing Frequency: p vs Vehicle-treated R6/2 mice,[6],ANOVA: p=0.782
same,Rear Climbing Test Time Spent Climbing: p vs Vehicle-treated R6/2 mice,[6],ANOVA: p=0.750
same,Rear Climbing Test Climbing Instances: p vs Vehicle-treated R6/2 mice,[7],ANOVA: p=0.671
same,Rear Climbing Test Latency to Climb: p vs Vehicle-treated R6/2 mice,[7],ANOVA: p=0.846
same,Rear Climbing Test Rearing Frequency: p vs Vehicle-treated R6/2 mice,[7],ANOVA: p=0.122
same,Rear Climbing Test Time Spent Climbing: p vs Vehicle-treated R6/2 mice,[7],ANOVA: p=0.724
same,Rear Climbing Test Climbing Instances: p vs Vehicle-treated R6/2 mice,[8],ANOVA: p=0.671
same,Rear Climbing Test Latency to Climb: p vs Vehicle-treated R6/2 mice,[8],ANOVA: p=0.846
same,Rear Climbing Test Rearing Frequency: p vs Vehicle-treated R6/2 mice,[8],ANOVA: p=0.122
same,Rear Climbing Test Time Spent Climbing: p vs Vehicle-treated R6/2 mice,[8],ANOVA: p=0.724
same,"rearing frequency and latency to climb a custom-made pencil holder, effect in words",chronic administration in R6/2 mice,no improvement
